Measurements reported in article PMC11273453, “Pentaphosphorylation via the Anhydride of Dihydrogen Pentametaphosphate: Access to Nucleoside Hexa- and Heptaphosphates and Study of Their Interaction with Ribonuclease A” (ACS Central Science, 2024).

What was measured:
Ribonuclease A (RNase A) [1] = biological target: T1, Ribonuclease A (RNase A) (Bos taurus, UniProt P61823); assay: direct […]{1H} NMR titration (binding constant Ka); details: read-out: direct 31P{1H} NMR titration (binding constant Ka) (converted)
T1 construct: gene RNASE1
T1 sequence (P61823 27-150): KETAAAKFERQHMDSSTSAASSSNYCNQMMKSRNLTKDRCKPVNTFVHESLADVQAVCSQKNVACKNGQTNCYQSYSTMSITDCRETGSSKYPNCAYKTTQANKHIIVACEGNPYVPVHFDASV

Ribonuclease A (RNase A) [2] = biological target: T1, Ribonuclease A (RNase A); assay: […]{1H} NMR competition titration with RNase A·p3A (binding constant Ka); details: read-out: 31P{1H} NMR competition titration with RNase A.p3A (binding constant Ka) (converted)
Ribonuclease A (RNase A) [3] = biological target: T1, Ribonuclease A (RNase A); assay: X-ray cocrystal structure; RNase A inhibition assay (Ki); assay type: biochemical
Ribonuclease A (RNase A) [4] = biological target: T1, Ribonuclease A (RNase A); assay: X-ray cocrystal structure (soaking); FRET inhibition assay (Ki); […] NMR titration; assay type: biochemical

| Compound | Ki (Ribonuclease A (RNase A) [3]) [nM] | Ki (Ribonuclease A (RNase A) [4]) [nM] | also measured |
| --- | --- | --- | --- |
| O=P1(O)OP(=O)(O)OP(=O)(O)OP(=O)(O)O1 [cP4i, tetrametaphosphate] |  |  | Kd (Ribonuclease A (RNase A) [1]): 23500 nM |
| O=c1ccn([C@@H]2O[C@H](COP(=O)(O)OP(=O)(O)OP(=O)(O)OP(=O)(O)OP(=O)(O)O)[C@@H](O)[C@H]2O)c(=O)[nH]1 [p5U] |  |  | Kd (Ribonuclease A (RNase A) [2]): 53.8 nM |
| Nc1ncnc2c1ncn2[C@@H]1O[C@H](COP(=O)(O)OP(=O)(O)OP(=O)(O)OP(=O)(O)OP(=O)(O)OP(=O)(O)O)[C@@H](O)[C@H]1O [p6A] | 3600 ± 600 |  |  |

The next lines start with results.

| Ki (Ribonuclease A (RNase A) [3]) [nM] | Ki (Ribonuclease A (RNase A) [4]) [nM] | Compound | also measured |
| --- | --- | --- | --- |
|  | 1100 ± 200 | O=c1ccn([C@@H]2O[C@H](COP(=O)(O)OP(=O)(O)OP(=O)(O)OP(=O)(O)OP(=O)(O)OP(=O)(O)O)[C@@H](O)[C@H]2O)c(=O)[nH]1 [p6U] |  |
| 2600 ± 400 |  | Nc1ncnc2c1ncn2[C@@H]1O[C@H](COP(=O)(O)OP(=O)(O)OP(=O)(O)OP(=O)(O)OP(=O)(O)OP(=O)(O)OP(=O)(O)O)[C@@H](O)[C@H]1O [p7A] |  |
|  | 1000 ± 200 | O=c1ccn([C@H]2O[C@@H](COP(=O)(O)OP(=O)(O)OP(=O)(O)OP(=O)(O)OP(=O)(O)OP(=O)(O)OP(=O)(O)O)[C@@H](O)[C@H]2O)c(=O)[nH]1 [p7U] |  |
